Data: PubChem BioAssay AID258 (DTP/NCI, 2004)
Where “and” joins values, the source holds several entries; their conditions need not be identical. Identical values can stand only once. Toxic doses and inconclusive results are not listed.

System: CD2F1 mice, L1210 leukemia sc, survival T/C
Test: NCI In Vivo Anticancer Drug Screen. Data for tumor model L1210 Leukemia (subcutaneous) in CD2F1 (CDF1) mice
Settings: endpoint: median survival time, higher = longer survival
How it was run: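 T/C ratio: treated-group survival or tumor size over vehicle-control group measurement, in mice carrying transplanted tumors.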

With CC/C(=C(/CC)c1ccc(O)cc1)c1ccc(O)cc1 the T/C (dose: 12.5 mg/kg/injection, schedule: Q01DX009 (ip), vehicle: saline with Tween-80) was 103 % of control, the T/C (dose: 12.5 mg/kg/injection, schedule: Q01DX009 (sc), vehicle: saline with Tween-80) was 98 % of control and the T/C (dose: 25.0 mg/kg/injection, schedule: Q01DX009 (ip), vehicle: saline with Tween-80) was 104 % of control. For the same molecule, the T/C (dose: 25.0 mg/kg/injection, schedule: Q01DX009 (sc), vehicle: saline with Tween-80) was 98 % of control and 100 % of control, the T/C (dose: 50.0 mg/kg/injection, schedule: Q01DX009 (ip), vehicle: saline with Tween-80) was 100 % of control and the T/C (dose: 50.0 mg/kg/injection, schedule: Q01DX009 (sc), vehicle: saline with Tween-80) was 102 % of control. For the same molecule, the T/C (dose: 100.0 mg/kg/injection, schedule: Q01DX009 (ip), vehicle: saline with Tween-80) was 97 % of control, the T/C (dose: 100.0 mg/kg/injection, schedule: Q01DX009 (sc), vehicle: saline with Tween-80) was 96 % of control and 97 % of control and the T/C (dose: 200.0 mg/kg/injection, schedule: Q01DX009 (ip), vehicle: saline with Tween-80) was 96 % of control. The T/C (dose: 200.0 mg/kg/injection, schedule: Q01DX009 (sc), vehicle: saline with Tween-80) was 106 % of control and the T/C (dose: 400.0 mg/kg/injection, schedule: Q01DX009 (sc), vehicle: saline with Tween-80) was 101 % of control.
For NS(=O)(=O)OCCCCCCCOS(N)(=O)=O, the T/C (dose: 30.0 mg/kg/injection, schedule: Q01DX009 (ip), vehicle: saline with Tween-80) was 124 % of control, the T/C (dose: 83.3 mg/kg/injection, schedule: Q01DX009 (ip), vehicle: saline with Tween-80) was 179 % of control and the T/C (dose: 138.8 mg/kg/injection, schedule: Q01DX009 (ip), vehicle: saline with Tween-80) was 118 % of control.
COc1ccc2[nH]c3ccc4cc[n+](CCN5CCC(C6CCN(CC[n+]7ccc8ccc9[nH]c%10ccc(OC)cc%10c9c8c7)CC6)CC5)cc4c3c2c1 was tested, and the T/C (dose: 6.9 mg/kg/injection, schedule: Q01DX009 (ip), vehicle: water) was 104 % of control, the T/C (dose: 11.5 mg/kg/injection, schedule: Q01DX009 (ip), vehicle: water) was 107 % of control and the T/C (dose: 12.5 mg/kg/injection, schedule: Q01DX009 (ip), vehicle: Klucel (hydroxypropylcellulose) (HPC)) was 204 % of control and 93 % of control. The T/C (dose: 32.0 mg/kg/injection, schedule: Q01DX009 (ip), vehicle: water) was 107 % of control and the T/C (dose: 50.0 mg/kg/injection, schedule: Q01DX009 (ip), vehicle: Klucel (hydroxypropylcellulose) (HPC)) was 340 % of control.
With C[C@]12CCC(=O)C=C1CC[C@@H]1[C@@H]2[C@@H](O)C[C@@]2(C)[C@H]1CC[C@]2(O)C(=O)CO the T/C (dose: 300.0 mg/kg/injection, schedule: Q01DX Z (sc), vehicle: methylcellulose (MC)) was 115 % of control.
